From patent US20110092515A1, “MELT GRANULATION PROCESS” (priority 2008, published 2011)

Test: Relative solubility of the physical forms
Format: physicochemical
Settings: monohydrate as impurity in the anhydrous form

## CC(O)C(=O)O.CN1CCN(c2ccc3nc(-c4c(N)c5c(F)cccc5[nH]c4=O)[nH]c3c2)CC1 [monohydrate form, 4-amino-5-fluoro-3-[5-(4-methylpiperazin-1-yl)-1H-benzimidazol-2-yl]quinolin-2(1H)-one lactic acid salt]
  solubility compared with the anhydrous form: less soluble
